Assay [1] addresses Human immunodeficiency virus type 1 reverse transcriptase (Human immunodeficiency virus 1) (UniProt Q72547). The assay is described as follows: Inhibition of Human immunodeficiency virus 1 RT assessed at 20 ug after 1 hr by spectrophotometric analysis.
The test system of assay [2] is Salmonella typhi. The assay is described as follows: Antibacterial activity against Salmonella enterica subsp. enterica serovar Typhi. It counts as functional, organism-based.
For assay [3], the system named is Aspergillus fumigatus. The assay is described as follows: Antifungal activity against Aspergillus fumigatus. Format: functional, organism-based.
The subject of assay [4] is Candida albicans. Nature of the assay: Antifungal activity against Candida albicans. Format: functional, organism-based.
Assay [5] relates to Aspergillus niger. The assay is described as follows: Antifungal activity against Aspergillus niger. Format: functional, organism-based.
For assay [6], the system named is Penicillium chrysogenum. Nature of the assay: Antifungal activity against Penicillium chrysogenum. It counts as functional, organism-based.
In assay [7] the test system is Bacillus subtilis. The assay is described as follows: Antibacterial activity against Bacillus subtilis. Format: functional, organism-based.

The source made the active and inactive calls. The rule behind the calls is not given here.

Turning to `COc1ccc2c(c(C(=O)/C=C(\O)C(=O)O)cn2Cc2ccc(Cl)cc2Cl)c1OC`, the inhibition in assay [1] came out at 78.2%.
In the case of `CCOC(=O)/C(O)=C/C(=O)c1cn(Cc2ccc(Cl)cc2Cl)c2c(OC)ccc(OC)c12`, the result in assay [2], in assay [3], in assay [4], in assay [5] and in assay [6] was Active. For the same compound, the inhibition in assay [1] was 86.5%.
As to `COc1cc(OC)c2c(C(=O)/C=C(\O)C(=O)O)cn(Cc3ccc(Cl)cc3Cl)c2c1`, in assay [1], the inhibition worked out at 79.2%.
As to `CCOC(=O)/C(O)=C/C(=O)c1cn(Cc2ccc(Cl)cc2Cl)c2cc(OC)cc(OC)c12`, the outcome in assay [7], in assay [4] and in assay [6] was Active. Moreover, in assay [1], the inhibition worked out at 87.6%.
As for `COc1ccc(OC)c2c1c(C(=O)/C=C(\O)C(=O)O)cn2Cc1ccc(Cl)cc1Cl`, the inhibition in assay [1] was determined as 82.8%.
On to `CC(=O)N1CCN(c2ccc(OCC3COC(Cn4ccnc4)(c4ccc(Cl)cc4Cl)O3)cc2)CC1` (centres undefined), for which the result in assay [3] and in assay [4] was Active.
In the case of `COc1cc2c(C(=O)/C=C(\O)C(=O)O)cn(Cc3ccc(Cl)cc3Cl)c2cc1OC`, the inhibition in assay [1] was found to be 78.6%.
As to `CCOC(=O)/C(O)=C/C(=O)c1cn(Cc2ccc(Cl)cc2Cl)c2ccc(OC)c(OC)c12`, the outcome in assay [7], in assay [5] and in assay [6] was Active. The same compound yielded an inhibition in assay [1] of 87.7%.
For the compound `CCOC(=O)/C(O)=C/C(=O)c1cn(Cc2ccc(Cl)cc2Cl)c2cc(OC)c(OC)cc12`, the result in assay [3], in assay [7] and in assay [4] was Active. In assay [1], the inhibition came to 80.9%.

For the origin of these results see ChEMBL document CHEMBL3045871, “Synthesis, biological screening and ADME prediction of benzylindole derivatives as novel anti-HIV-1, anti-fungal and anti-bacterial agents” (Med Chem Res, 2013).
